Patent US10125134B2 (Mirati Therapeutics, Inc., priority 2016, dated 2018)
pIC50: −log10 of the molar value. Counter-ions that a name gives are not always drawn. Like-named read-outs stand apart in the source and are kept apart here.

Legend:
KRas G12C = KRas G12C (Homo sapiens, UniProt P01116, C118S/C51S/C80L/G12C); experiment: KRas G12C Modification Assay (LCMS detection of covalent adduct); assay type: binding; settings: normalized percent of control; tested at 5 μM concentration for 3 hours
Summary of the method: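 Covalent modification was read by reverse-phase LC/MS of intact protein after compound exposure, each reaction stopped at its time point with 25 mM acetic acid. Unmodified-protein signal, taken as percent of total, was normalised to untreated protein and reported as POC.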

[1] = tested on: NCI-H358 cells (express KRas G12C), Phospho-ERK; experiment: Cellular inhibition of KRas G12C: Phospho-ERK in NCI-H358 cells; assay type: cell-based; settings: pERK(Thr202/Tyr204) normalized with GAPDH, NCI-H358 cells, 3 hours, read-out: IC50
Summary of the method: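 IC50 derived by 4-parameter fit of GAPDH-normalized pERK(Thr202/Tyr204) signal, as percent of DMSO control. Signal came from in-cell immunodetection with infrared secondaries after 3 h compound exposure of KRas G12C NCI-H358 cells at 0.5% DMSO.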

| Compound | POC (KRas G12C) | pIC50 ([1]; Homo sapiens) | pIC50 ([1]; Homo sapiens, NCI-H358, 3 h) | pIC50 [1] |
| --- | --- | --- | --- | --- |
| C=CC(=O)N1CCN(c2nc(OC[C@@H]3CCCN3C)nc3c2CCN(c2c(C(F)(F)F)ccc4[nH]ncc24)C3)CC1CC#N (stereo partly drawn) [Example 149, 2-[4-[2-[[(2S)-1-methylpyrrolidin-2-yl]methoxy]-7-[5-(trifluoromethyl)-1H-indazol-4-yl]-6,8-dihydro-5H-pyrido[3,4-d]pyrimidin-4-yl]-1-prop-2-enoyl-piperazin-2-yl]acetonitrile] | B (“B”>25% POC−≤50% POC) | 6.00 to 10.00 | – | – |
| C=CC(=O)N1CCN(c2nc(OC[C@@H]3CCCN3CC)nc3c2CCN(c2cccc4ccccc24)C3)CC1CC#N (stereo partly drawn) [Example 233, 2-(1-acryloyl-4-(2-(((S)-1-ethylpyrrolidin-2-yl)methoxy)-7-(naphthalen-1-yl)-5,6,7,8-tetrahydropyrido[3,4-d]pyrimidin-4-yl)piperazin-2-yl)acetonitrile] | C (“C”>50% POC) | – | 6.00 to 10.00 | – |
| C=CC(=O)N1CCN(c2nc(OC[C@@H]3CCCN3C)nc3c2CCN(c2nncc4ccccc24)C3)C[C@@H]1CC#N [Example 430, 2-((S)-1-acryloyl-4-(2-(((S)-1-methylpyrrolidin-2-yl)methoxy)-7-(phthalazin-1-yl)-5,6,7,8-tetrahydropyrido[3,4-d]pyrimidin-4-yl)piperazin-2-yl)acetonitrile] | C (“C”>50% POC) | – | < 6.00 | – |
| C=CC(=O)N1CCN(c2nc(OC[C@H]3CN(C)CCN3)nc3c2CCN(c2cccc4ccccc24)C3)CC1CC#N (stereo partly drawn) [Example 224, 2-(1-acryloyl-4-(2-(((R)-4-methylpiperazin-2-yl)methoxy)-7-(naphthalen-1-yl)-5,6,7,8-tetrahydropyrido[3,4-d]pyrimidin-4-yl)piperazin-2-yl)acetonitrile] | C (“C”>50% POC) | – | 6.00 to 10.00 | – |
| C=CC(=O)N1CCN(c2nc(OC[C@@H]3CCCN3C)nc3c2CCN(c2cccc(Cl)c2C)C3)C[C@@H]1CC#N [Example 419, 2-((S)-1-acryloyl-4-(7-(3-chloro-2-methylphenyl)-2-(((S)-1-methylpyrrolidin-2-yl)methoxy)-5,6,7,8-tetrahydropyrido[3,4-d]pyrimidin-4-yl)piperazin-2-yl)acetonitrile] | C (“C”>50% POC) | – | 6.00 to 10.00 | – |
| C=CC(=O)N1CCN(c2nc(OC[C@@H]3CCCN3C)nc3c2CCN(c2cccc4ccc(F)cc24)C3)CC1CC#N (stereo partly shown) [Example 302] | C (“C”>50% POC) | – | 6.00 to 10.00 | – |
| C=CC(=O)N1CCN(c2nc(OC3CCN(C)C3)nc3c2CCN(c2cc(O)cc4ccccc24)C3)CC1 (stereo not shown) [Example 23, 1-(4-(7-(3-hydroxynaphthalen-1-yl)-2-((1-methylpyrrolidin-3-yl)oxy)-5,6,7,8-tetrahydropyrido[3,4-d]pyrimidin-4-yl)piperazin-1-yl)prop-2-en-1-one] | C (“C”>50% POC) | – | < 6.00 | – |
| C=CC(=O)N1CCN(c2nc(OC[C@@H]3CCCN3C)nc3c2CCN(c2c(C)c(O)cc4ccccc24)C3)CC1 [Example 175, (S)-1-(4-(7-(3-hydroxy-2-methylnaphthalen-1-yl)-2-((1-methylpyrrolidin-2-yl)methoxy)-5,6,7,8-tetrahydropyrido[3,4-d]pyrimidin-4-yl)piperazin-1-yl)prop-2-en-1-one] | C (“C”>50% POC) | 6.00 to 10.00 | – | – |
| C=CC(=O)N1CCN(c2nc(OCCCN3CCCC3)nc3c2CCN(c2cc(O)cc4ccccc24)C3)CC1 [Example 39, 1-(4-(7-(3-hydroxynaphthalen-1-yl)-2-(3-(pyrrolidin-1-yl)propoxy)-5,6,7,8-tetrahydropyrido[3,4-d]pyrimidin-4-yl)piperazin-1-yl)prop-2-en-1-one] | C (“C”>50% POC) | – | 6.00 to 10.00 | – |
| C=CC(=O)N1CCN(c2nc(OC[C@H]3CCCN3C)nc3c2CCN(c2cccc(Cl)c2C(F)(F)F)C3)C[C@@H]1CC#N [Example 319, 2-((S)-1-acryloyl-4-(7-(3-chloro-2-(trifluoromethyl)phenyl)-2-(((R)-1-methylpyrrolidin-2-yl)methoxy)-5,6,7,8-tetrahydropyrido[3,4-d]pyrimidin-4-yl)piperazin-2-yl)acetonitrile] | C (“C”>50% POC) | – | 6.00 to 10.00 | – |
| C=CC(=O)N1CCN(c2nc(OCC3CCCN(C)C3)nc3c2CCN(c2cc(O)cc4ccccc24)C3)CC1 (stereo not shown) [Example 72, 1-(4-(7-(3-hydroxynaphthalen-1-yl)-2-((1-methylpiperidin-3-yl)methoxy)-5,6,7,8-tetrahydropyrido[3,4-d]pyrimidin-4-yl)piperazin-1-yl)prop-2-en-1-one] | C (“C”>50% POC) | – | 6.00 to 10.00 | – |
| C=CC(=O)N1CCN(c2nc(O[C@H](CC)CN(C)C)nc3c2CCN(c2cc(O)cc4ccccc24)C3)CC1 [Example 60, (R)-1-(4-(2-((1-(dimethylamino)butan-2-yl)oxy)-7-(3-hydroxynaphthalen-1-yl)-5,6,7,8-tetrahydropyrido[3,4-d]pyrimidin-4-yl)piperazin-1-yl)prop-2-en-1-one] | C (“C”>50% POC) | – | < 6.00 | – |
| C=CC(=O)N1CCN(c2nc(OCCN3CCCC[C@@H]3C)nc3c2CCN(c2cc(O)cc4ccccc24)C3)CC1 [Example 88, (S)-1-(4-(7-(3-hydroxynaphthalen-1-yl)-2-(2-(2-methylpiperidin-1-yl)ethoxy)-5,6,7,8-tetrahydropyrido[3,4-d]pyrimidin-4-yl)piperazin-1-yl)prop-2-en-1-one] | C (“C”>50% POC) | – | 6.00 to 10.00 | – |
| C=CC(=O)N1CCN(c2nc(OCCCN3CCOCC3)nc3c2CCN(c2cc(O)cc(C4CC4)c2)C3)CC1 [Example 41, 1-(4-(7-(3-cyclopropyl-5-hydroxyphenyl)-2-(3-morpholinopropoxy)-5,6,7,8-tetrahydropyrido[3,4-d]pyrimidin-4-yl)piperazin-1-yl)prop-2-en-1-one trifluoroacetate] | A (“A”≤25% POC) | < 6.00 | – | – |
| C=CC(=O)N1CCN(c2nc(OC[C@@H]3CCCN3C)nc3c2CCN(c2cccc4cnccc24)C3)CC1CC#N (stereo partly drawn) [Example 292, 2-[4-[7-(5-isoquinolyl)-2-[[(2S)-1-methylpyrrolidin-2-yl]methoxy]-6,8-dihydro-5H-pyrido[3,4-d]pyrimidin-4-yl]-1-prop-2-enoyl-piperazin-2-yl]acetonitrile] | A (“A”≤25% POC) | – | – | < 6.00 |
| C/C=C/C(=O)N1CCN(c2nc(OC[C@@H]3CCCN3C)nc3c2CCN(c2cc(O)cc4ccccc24)C3)CC1 [Example 198, (S,E)-1-(4-(7-(3-hydroxynaphthalen-1-yl)-2-((1-methylpyrrolidin-2-yl)methoxy)-5,6,7,8-tetrahydropyrido[3,4-d]pyrimidin-4-yl)piperazin-1-yl)but-2-en-1-one] | C (“C”>50% POC) | – | < 6.00 | – |
| C=CC(=O)N1CCN(c2nc(O[C@H](C)CN(C)C)nc3c2CCN(c2cc(O)ccc2C(F)(F)F)C3)CC1 [Example 79, (R)-1-(4-(2-((1-(dimethylamino)propan-2-yl)oxy)-7-(5-hydroxy-2-(trifluoromethyl)phenyl)-5,6,7,8-tetrahydropyrido[3,4-d]pyrimidin-4-yl)piperazin-1-yl)prop-2-en-1-one] | A (“A”≤25% POC) | < 6.00 | – | – |
